For data set [1], the target named is T1, Flavobacterium meningosepticum PED (Elizabethkingia meningoseptica, UniProt P27028).
T1 construct: purchased Seikagaku Kogyo Co. Ltd
Put plainly: Prolyl endopeptidase inhibition assay (Flavobacterium enzyme, Z-Gly-Pro-pNA substrate). The class given is biochemical. The conditions noted are these: pre-incubated 30 minutes at 30° C., pH 7.0. On the procedure:
(§1) Two enzymes were used: Flavobacterial enzyme for the screening and the isolation study and partially purified rabbit brain enzyme for in vitro evaluation. Ten μl of Flavobacterium meningosepticum PED,^10, 11 (Seikagaku Kogyo Co. Ltd., 0.5 unit/ml in 50 mM phosphate buffer, pH 7.0) or rabbit brain PED partially purified from the whole brain homogenate^12, 13.5 μl of a test sample and 86.5 μl of 100 mM phosphate buffer (pH 7.0) were mixed in a well of a 96-well microplate and pre-incubated for about 30 minutes at about 30° C. The reaction was started by addition of 25 μl of 2 mM carbobenzyloxyglycyl-prolyl-p-nitroanilide (Z-Gly-Pro-pNA) in 40% dioxane-100 mM phosphate buffer, pH 7.0. After about 5 minute-incubation at about 30° C., the amount of released p-nitroaniline was determined colorimetrically with a microplate autoreader (Titertek Multiskan® MMC) at 414 nm. For control, the reaction buffer was added to the reaction mixture instead of the test sample. The percentage of inhibition was calculated by the following equation: [formula]

The target in another data set is T2, rabbit brain PED (Oryctolagus cuniculus, UniProt A0A5F9CCV6).
T2 construct: rabbit brain PED partially purified from the whole brain homogenate; from tissue; host or cells: rabbit whole brain homogenate
T2 sequence (A0A5F9CCV6 1-707): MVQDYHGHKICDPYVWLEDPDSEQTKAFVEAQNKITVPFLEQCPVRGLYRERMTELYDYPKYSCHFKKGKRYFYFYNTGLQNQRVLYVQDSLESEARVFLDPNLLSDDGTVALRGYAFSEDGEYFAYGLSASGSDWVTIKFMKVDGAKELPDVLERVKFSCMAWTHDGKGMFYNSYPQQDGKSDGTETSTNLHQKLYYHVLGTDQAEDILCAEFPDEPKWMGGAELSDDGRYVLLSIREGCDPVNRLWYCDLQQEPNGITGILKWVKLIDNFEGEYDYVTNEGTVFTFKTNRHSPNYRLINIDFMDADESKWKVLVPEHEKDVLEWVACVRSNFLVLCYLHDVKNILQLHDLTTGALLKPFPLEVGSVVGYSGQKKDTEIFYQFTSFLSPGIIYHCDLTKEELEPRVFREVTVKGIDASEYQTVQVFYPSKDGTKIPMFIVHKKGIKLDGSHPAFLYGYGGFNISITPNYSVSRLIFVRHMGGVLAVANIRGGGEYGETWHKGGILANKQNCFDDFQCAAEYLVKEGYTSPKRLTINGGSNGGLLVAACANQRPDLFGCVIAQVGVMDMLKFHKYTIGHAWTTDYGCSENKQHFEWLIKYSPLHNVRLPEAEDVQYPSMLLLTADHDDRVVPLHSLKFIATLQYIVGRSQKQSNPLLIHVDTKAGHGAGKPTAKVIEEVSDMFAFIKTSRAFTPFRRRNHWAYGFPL
Nature of the data set: Prolyl endopeptidase inhibition assay (partially purified rabbit brain enzyme, Z-Gly-Pro-pNA substrate). The class given is biochemical. The conditions noted are these: pre-incubated 30 minutes at 30° C., pH 7.0. The method, then: as §1

The nature of data set [2]: Solubility (physico-chemical properties). The conditions noted are these: for Solubility: Table 3. The format is physicochemical.

Where a SMILES comes first, the peptide text is derived from it. [ ]: non-standard residue; d: D form. The star is where a group is joined. ξ: configuration not given here. Cbz = O=C(OCc1ccccc1)*; ξP = O=C(O)C1CCCN1

T1 sequence (P27028 21-705): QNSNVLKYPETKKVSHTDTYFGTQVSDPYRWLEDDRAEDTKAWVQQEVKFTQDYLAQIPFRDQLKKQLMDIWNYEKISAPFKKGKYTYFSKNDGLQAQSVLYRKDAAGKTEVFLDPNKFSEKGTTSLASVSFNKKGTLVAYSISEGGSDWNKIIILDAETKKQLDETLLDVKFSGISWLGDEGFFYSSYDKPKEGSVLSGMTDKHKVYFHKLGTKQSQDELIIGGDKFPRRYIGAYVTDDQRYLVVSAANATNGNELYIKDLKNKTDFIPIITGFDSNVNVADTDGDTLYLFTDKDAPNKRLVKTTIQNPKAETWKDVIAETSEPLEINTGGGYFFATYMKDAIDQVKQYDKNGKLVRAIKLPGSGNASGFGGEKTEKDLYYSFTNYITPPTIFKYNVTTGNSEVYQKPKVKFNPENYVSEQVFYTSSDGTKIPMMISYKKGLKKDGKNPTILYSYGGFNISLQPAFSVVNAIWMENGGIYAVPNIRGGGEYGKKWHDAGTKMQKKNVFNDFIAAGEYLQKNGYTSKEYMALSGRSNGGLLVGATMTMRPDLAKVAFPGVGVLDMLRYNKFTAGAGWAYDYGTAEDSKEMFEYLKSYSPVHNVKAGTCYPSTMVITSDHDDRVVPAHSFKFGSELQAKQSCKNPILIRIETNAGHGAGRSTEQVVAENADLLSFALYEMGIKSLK

As to `CC(C)[C@H](NC(=O)OCc1ccccc1)C(=O)N1CCCC1C=O` (stereo partly drawn) [Z-Val-prolinal, reference compound] (Cbz-Val-[ξP]-aldehyde), the “PED inhibitory activity IC50, Flavobacterium” value in data set [1] turned out to be 3.6 ng/mL. In addition, the “PED inhibitory activity IC50, Rabbit brain” value on rabbit brain PED came to 16 ng/mL.
Consider `CC(C)CC/C=C/C(=O)NC1CCCNC(=O)C(CC(C)C)NC(=O)C(=O)C(C)NC1=O` (stereo not drawn) [BU-4164E A], for which the “PED inhibitory activity IC50, Flavobacterium” value in data set [1] stood at 3.7 ng/mL. Further, the “PED inhibitory activity IC50, Rabbit brain” value on rabbit brain PED was 85 ng/mL. For the same compound, in data set [2], the Solubility entry was “Soluble in DMSO”; the “Solubility in dimethyl sulfoxide” value is “soluble”; the “Solubility in other organic solvents and water” value is “practically insoluble”.
On the same counts, the results for `CCC(C)CC/C=C/C(=O)NC1CCCNC(=O)C(CC(C)C)NC(=O)C(=O)C(C)NC1=O` (stereo not drawn) [BU-4164E B] are 2.1 ng/mL, 31 ng/mL, “Soluble in DMSO”, “soluble” and “practically insoluble”.

The values above are taken from patent US5073549A, “BU-4164E - A and B, prolyl endopeptidase inhibitors and their methods of use” (Bristol-Myers Squibb Company, priority 1990, dated 1991).
